SMILES	melting point [°C]
CC(C)n1c(=O)n(C(=O)NCC2CCN(CC3(C(=O)O)CCOCC3)CC2)c2ccccc21 [Example 1, 4-{[4-({[(3-isopropyl-2-oxo-2,3-dihydro-1H-benzimidazol-1-yl)carbonyl]amino}methyl)piperidin-1-yl]methyl}tetrahydro-2H-pyran-4-carboxylic acid]	176
CC(C)n1c(=O)n(C(=O)NCC2CCN(CC3(C(=O)O)CC3)CC2)c2ccccc21.Cl	206

More lines, now with the values ahead:

melting point [°C]	SMILES
184	CC(C)n1c(=O)n(C(=O)NCC2(O)CCN(CC3(C(=O)O)CCCCC3)CC2)c2ccccc21 [Example 6, 1-{[4-hydroxy-4-({[(3-isopropyl-2-oxo-2,3-dihydro-1H-benzimidazol-1-yl)carbonyl]amino}methyl)piperidin-1-yl]methyl}cyclohexanecarboxylic acid]
165	CC(C)n1c(=O)n(C(=O)NCC2CCN(CC3(C(=O)O)CCCC3)CC2)c2ccccc21 [Example 3, 1-{[4-({[(3-isopropyl-2-oxo-2,3-dihydro-1H-benzimidazol-1-yl)carbonyl]amino}methyl)piperidin-1-yl]methyl}cyclopentanecarboxylic acid]
151	CC(C)n1c(=O)n(C(=O)NCC2CCN(CC3(C(=O)O)CCCCC3)CC2)c2ccccc21 [Example 2, 1-{[4-({[(3-isopropyl-2-oxo-2,3-dihydro-1H-benzimidazol-1-yl)carbonyl]amino}methyl)piperidin-1-yl]methyl}cyclohexanecarboxylic acid]
